Laboratory results as given in paper PMC6199744, “Development of Chemical Proteomics for the Folateome and Analysis of the Kinetoplastid Folateome” (ACS Infectious Diseases, 2018).
Like-named read-outs stand apart in the source and are kept apart here.

Experiments:
Assay type in all cases: binding
[1] = target: T1, HeLa cell extract proteins (Homo sapiens, UniProt Q9BVK8); settings: HeLa; protein TMEM147
T1 construct: endogenous in cells; host or cells: HeLa cell extract
T1 sequence (Q9BVK8 1-224): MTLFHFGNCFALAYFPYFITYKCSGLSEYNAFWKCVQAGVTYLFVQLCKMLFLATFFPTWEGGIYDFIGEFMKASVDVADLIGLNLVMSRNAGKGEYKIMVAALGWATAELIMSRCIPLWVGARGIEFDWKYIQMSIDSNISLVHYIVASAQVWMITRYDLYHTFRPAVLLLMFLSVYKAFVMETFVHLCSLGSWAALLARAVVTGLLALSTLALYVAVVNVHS

[2] = target: T2, HeLa cell extract proteins (Homo sapiens, UniProt O75323); settings: protein GBAS; HeLa
T2 construct: endogenous in cells; host or cells: HeLa cell extract
T2 sequence (O75323 24-286): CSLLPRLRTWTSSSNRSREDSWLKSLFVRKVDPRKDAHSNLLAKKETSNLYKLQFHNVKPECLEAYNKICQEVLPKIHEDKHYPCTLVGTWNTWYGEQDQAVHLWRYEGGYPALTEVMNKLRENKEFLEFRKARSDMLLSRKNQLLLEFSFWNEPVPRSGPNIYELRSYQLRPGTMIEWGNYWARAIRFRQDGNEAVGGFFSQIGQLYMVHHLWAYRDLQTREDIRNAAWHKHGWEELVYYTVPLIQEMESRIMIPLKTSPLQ

[3] = target: T3, HeLa cell extract proteins (Homo sapiens, UniProt Q8N0W3); settings: protein FUK; HeLa
T3 construct: endogenous in cells; host or cells: HeLa cell extract
T3 sequence (Q8N0W3 1-1084): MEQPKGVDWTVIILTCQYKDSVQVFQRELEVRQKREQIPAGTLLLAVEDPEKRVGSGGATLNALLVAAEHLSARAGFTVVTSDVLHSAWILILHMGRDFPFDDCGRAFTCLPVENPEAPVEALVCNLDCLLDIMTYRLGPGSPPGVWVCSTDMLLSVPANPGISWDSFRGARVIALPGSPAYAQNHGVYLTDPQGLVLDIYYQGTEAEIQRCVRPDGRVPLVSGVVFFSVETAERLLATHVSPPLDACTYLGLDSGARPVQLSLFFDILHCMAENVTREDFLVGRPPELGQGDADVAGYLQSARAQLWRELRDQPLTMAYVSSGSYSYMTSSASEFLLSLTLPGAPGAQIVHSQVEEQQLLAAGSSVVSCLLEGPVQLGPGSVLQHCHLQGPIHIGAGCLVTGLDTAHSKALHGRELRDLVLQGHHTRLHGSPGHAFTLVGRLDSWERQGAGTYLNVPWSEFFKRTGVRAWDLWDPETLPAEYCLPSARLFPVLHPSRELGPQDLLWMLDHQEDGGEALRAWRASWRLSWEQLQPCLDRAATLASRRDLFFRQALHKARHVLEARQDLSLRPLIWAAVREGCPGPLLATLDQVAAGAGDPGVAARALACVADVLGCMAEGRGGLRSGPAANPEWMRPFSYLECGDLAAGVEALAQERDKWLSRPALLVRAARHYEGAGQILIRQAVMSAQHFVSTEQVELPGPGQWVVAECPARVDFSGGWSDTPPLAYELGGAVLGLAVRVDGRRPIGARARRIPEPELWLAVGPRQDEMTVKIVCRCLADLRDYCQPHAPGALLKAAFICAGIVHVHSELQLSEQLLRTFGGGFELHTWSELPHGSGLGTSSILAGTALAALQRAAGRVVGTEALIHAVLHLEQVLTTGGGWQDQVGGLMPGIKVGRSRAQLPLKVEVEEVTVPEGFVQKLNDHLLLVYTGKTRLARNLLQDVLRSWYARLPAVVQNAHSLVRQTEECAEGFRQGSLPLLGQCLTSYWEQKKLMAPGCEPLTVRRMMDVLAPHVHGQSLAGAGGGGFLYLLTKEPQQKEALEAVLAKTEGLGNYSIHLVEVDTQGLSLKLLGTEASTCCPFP

[4] = target: T4, HeLa cell extract proteins (Homo sapiens, UniProt Q16795); settings: captured protein NDUFA9; HeLa
T4 construct: endogenous in cells; host or cells: HeLa cell extract

[5] = target: T5, HeLa cell extract proteins (Homo sapiens, UniProt Q15233); settings: protein NONO; HeLa
T5 construct: endogenous in cells; host or cells: HeLa cell extract
T5 sequence (Q15233 1-471): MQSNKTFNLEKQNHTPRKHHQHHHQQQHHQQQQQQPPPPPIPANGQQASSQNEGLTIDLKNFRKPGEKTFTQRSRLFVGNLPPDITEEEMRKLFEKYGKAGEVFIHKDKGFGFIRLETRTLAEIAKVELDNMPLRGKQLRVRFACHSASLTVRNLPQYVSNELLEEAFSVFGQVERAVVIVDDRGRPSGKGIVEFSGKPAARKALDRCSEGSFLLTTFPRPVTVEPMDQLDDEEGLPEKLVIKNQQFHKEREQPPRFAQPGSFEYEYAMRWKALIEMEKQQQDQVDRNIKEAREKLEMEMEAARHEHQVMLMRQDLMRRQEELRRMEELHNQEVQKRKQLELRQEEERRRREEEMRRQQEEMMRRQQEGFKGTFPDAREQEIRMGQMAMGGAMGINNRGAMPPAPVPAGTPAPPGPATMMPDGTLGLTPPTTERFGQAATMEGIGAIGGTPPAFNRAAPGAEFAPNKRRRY

[6] = target: T6, HeLa cell extract proteins (Homo sapiens, UniProt O75533)
T6 construct: endogenous in cells; host or cells: HeLa cell extract

[7] = target: T7, HeLa cell extract proteins (Homo sapiens, UniProt O00170)
T7 construct: endogenous in cells; host or cells: HeLa cell extract
T7 sequence (O00170 1-330): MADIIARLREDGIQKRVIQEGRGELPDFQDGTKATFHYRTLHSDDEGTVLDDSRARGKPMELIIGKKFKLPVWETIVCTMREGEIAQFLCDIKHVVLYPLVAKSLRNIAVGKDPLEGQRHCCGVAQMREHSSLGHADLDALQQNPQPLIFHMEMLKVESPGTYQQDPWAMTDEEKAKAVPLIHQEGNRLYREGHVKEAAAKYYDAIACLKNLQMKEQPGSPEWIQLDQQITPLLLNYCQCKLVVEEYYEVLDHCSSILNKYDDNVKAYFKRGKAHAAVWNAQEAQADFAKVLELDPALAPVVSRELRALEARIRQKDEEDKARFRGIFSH

[8] = target: T8, HeLa cell extract proteins (Homo sapiens, UniProt O76071)
T8 construct: endogenous in cells; host or cells: HeLa cell extract
T8 sequence (O76071 whole entry): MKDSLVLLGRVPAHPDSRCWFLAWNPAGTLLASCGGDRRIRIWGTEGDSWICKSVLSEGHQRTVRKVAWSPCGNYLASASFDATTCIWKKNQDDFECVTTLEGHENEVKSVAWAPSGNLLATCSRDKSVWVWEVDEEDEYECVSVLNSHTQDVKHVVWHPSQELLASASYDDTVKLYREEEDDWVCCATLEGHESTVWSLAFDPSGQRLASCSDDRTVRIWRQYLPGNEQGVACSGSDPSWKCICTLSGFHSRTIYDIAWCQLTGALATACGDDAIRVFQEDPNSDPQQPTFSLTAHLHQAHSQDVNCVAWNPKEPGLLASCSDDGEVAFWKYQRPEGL

T6 sequence (O75533 whole entry): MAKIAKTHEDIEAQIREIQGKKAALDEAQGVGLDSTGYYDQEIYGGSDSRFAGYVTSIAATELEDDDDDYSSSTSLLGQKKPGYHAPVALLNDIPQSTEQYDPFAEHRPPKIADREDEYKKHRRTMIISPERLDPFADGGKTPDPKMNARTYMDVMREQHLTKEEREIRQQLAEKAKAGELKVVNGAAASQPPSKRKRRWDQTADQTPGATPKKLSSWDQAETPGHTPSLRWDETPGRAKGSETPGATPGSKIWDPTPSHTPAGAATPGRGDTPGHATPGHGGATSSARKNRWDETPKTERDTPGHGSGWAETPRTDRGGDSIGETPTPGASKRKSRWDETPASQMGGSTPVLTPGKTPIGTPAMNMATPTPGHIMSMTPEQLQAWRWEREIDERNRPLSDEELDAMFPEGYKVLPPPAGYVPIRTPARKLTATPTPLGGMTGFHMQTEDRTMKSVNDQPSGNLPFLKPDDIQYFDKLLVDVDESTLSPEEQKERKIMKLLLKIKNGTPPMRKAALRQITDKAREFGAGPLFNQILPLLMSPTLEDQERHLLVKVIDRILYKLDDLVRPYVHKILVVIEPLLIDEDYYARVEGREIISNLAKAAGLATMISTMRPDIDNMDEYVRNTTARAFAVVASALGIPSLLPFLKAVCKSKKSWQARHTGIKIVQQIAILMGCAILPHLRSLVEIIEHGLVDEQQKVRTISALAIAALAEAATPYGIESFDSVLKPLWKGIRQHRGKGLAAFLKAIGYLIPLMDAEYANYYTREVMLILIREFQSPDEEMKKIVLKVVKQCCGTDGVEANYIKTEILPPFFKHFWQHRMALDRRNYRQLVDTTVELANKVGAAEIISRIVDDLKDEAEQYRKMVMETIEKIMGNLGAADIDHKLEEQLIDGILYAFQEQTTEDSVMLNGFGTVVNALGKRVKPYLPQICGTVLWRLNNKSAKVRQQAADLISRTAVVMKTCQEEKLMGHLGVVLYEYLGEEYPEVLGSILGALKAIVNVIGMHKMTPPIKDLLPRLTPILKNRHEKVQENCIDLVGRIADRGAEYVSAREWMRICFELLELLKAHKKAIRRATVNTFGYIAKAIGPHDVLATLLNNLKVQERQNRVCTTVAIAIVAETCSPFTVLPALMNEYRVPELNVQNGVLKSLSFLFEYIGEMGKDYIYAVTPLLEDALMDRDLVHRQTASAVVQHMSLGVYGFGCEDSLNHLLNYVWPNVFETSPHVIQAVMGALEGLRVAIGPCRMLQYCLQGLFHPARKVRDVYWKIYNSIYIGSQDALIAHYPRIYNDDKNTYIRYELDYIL
T4 sequence (Q16795 36-377): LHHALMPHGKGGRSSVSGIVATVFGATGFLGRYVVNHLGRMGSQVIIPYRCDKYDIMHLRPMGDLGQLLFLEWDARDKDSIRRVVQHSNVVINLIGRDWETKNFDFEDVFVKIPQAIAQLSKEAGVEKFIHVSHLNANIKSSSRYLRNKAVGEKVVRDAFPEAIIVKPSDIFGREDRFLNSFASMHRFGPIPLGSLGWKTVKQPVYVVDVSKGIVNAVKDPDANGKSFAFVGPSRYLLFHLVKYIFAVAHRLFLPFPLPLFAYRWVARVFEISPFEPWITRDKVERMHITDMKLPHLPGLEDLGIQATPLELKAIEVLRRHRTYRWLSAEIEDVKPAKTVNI

Row | SMILES | fold changes relative to vehicle control [1] | fold changes relative to vehicle control [2] | fold changes relative to vehicle control [3] | fold changes relative to vehicle control [4] | fold changes relative to vehicle control [5] | fold changes relative to vehicle control [6] | fold changes relative to vehicle control [7] | fold changes relative to vehicle control [8] | fold changes relative to vehicle control ([6]; HeLa, protein SF3B1) | fold changes relative to vehicle control ([7]; HeLa, captured protein AIP) | fold changes relative to vehicle control ([8]; HeLa, protein CIAO1)
1 | Nc1nc2cccc(-c3ccccc3)c2n1Cc1ccc(Cl)c(Cl)c1 [compound 3] | 0.96 | 1.01 | 1.07 | 1.04 | 0.92 | – | – | – | – | – | –
2 | Nc1nc2[nH]cc(CCc3ccc(C(=O)N[C@@H](CCC(=O)O)C(=O)O)cc3)c2c(=O)[nH]1 [PTX, pemetrexed] | – | – | – | – | – | 1.1 | 0.93 | 0.86 | – | – | –
3 | Nc1nc2c(c(=O)[nH]1)N(C=O)C(CNc1ccc(C(=O)N[C@@H](CCC(=O)O)C(=O)O)cc1)CN2 (stereo partly drawn) [LEU, leucovorin] | – | – | – | – | – | – | – | – | 1.02 | 0.79 | 0.94
4 | CCCCCCOc1cccc(Cc2cnc(N)nc2N)c1 [compound 2] | 0.97 | 1.29 | 1.11 | 0.87 | 1.67 | – | – | – | – | – | –
5 | NCCOCCOCC(=O)Nc1nc2ncc(CNc3ccc(C(=O)NC(CCC(=O)O)C(=O)O)cc3)nc2c(=O)[nH]1 (stereo not drawn) [compound 6] | – | – | – | – | – | – | – | – | 1.16 | 0.92 | 0.93
6 | CCCCCCOc1ccc(Cc2cnc(N)nc2N)cc1 [compound 1] | 0.72 | 1.26 | 0.96 | 1.01 | 0.97 | – | – | – | – | – | –
7 | NCCCNc1ccc(C(=O)NC(CCC(=O)O)C(=O)O)cc1 (stereo not drawn) [compound 7] | – | – | – | – | – | – | – | – | 1.07 | 0.99 | 0.91
